# Measurements taken from US7501399B2, “Immunoeffector compounds” (Corixa Corporation, priority 2000, dated 2009).
# Legend:
# [1] = system: HBsAg; assay: Adjuvant activity towards HBsAg, IgG1 and IgG2a isotype titers by ELISA (Example 4); type: in vivo, BALB/c mice
# Experimental: IgG1 and IgG2a isotype titers to HBsAg were determined by ELISA from pooled sera collected 21 days post secondary (Table 3). The nonimmune controls were not vaccinated. […] RC-553 stimulated titers equivalent to the positive controls, MPL® immunostimulant (Table 3).
# [2] = system: TNF-α; assay: Ex vivo cytokine induction in human whole blood, TNF-α sandwich ELISA; type: cell-based; details: 1, 5 and 10 μg/ml in the assay; 4 hr at 37° C.
# Experimental: (§1) The effects of RC-553 on the elaboration of TNF-α and IL-1β was measured under ex vivo conditions on human peripheral blood mononuclear cells. MPL® immunostimulant and RC-553 were formulated in aqueous solutions of 0.2% TEoA/WFI.
# (§2) Human whole blood was used to evaluate the ability of glycolipids (AGPs) to induce proinflammatory cytokines. Human whole blood is collected into heparinized tubes and 0.45 ml of whole blood is admixed with 0.05 ml phosphate buffered saline (PBS, pH 7.4) containing the glycolipid (i.e., the test compounds). The tubes are incubated for 4 hr at 37° C. on a shaker apparatus. The samples are then diluted with 1.5 ml sterile PBS and centrifuged. The supernatants are removed and analyzed for […] TNF-α and IL-1β by sandwich ELISA using R&D Systems' Quantikine immunoassay kits for human TNF-α and IL-1β.
# [3] = system: IL-1β; assay: Ex vivo cytokine induction in human whole blood, IL-1β sandwich ELISA; type: cell-based
# Experimental: as §1, §2
# [4] = system: iNOS; assay: iNOS induction in IFN-γ primed J774 murine macrophages, Greiss reagent nitrite release; type: cell-based; details: J774 cells primed with IFN-γ
# Experimental: This example illustrates the effects of various glycolipids on iNOS induction in J774 murine macrophages. The murine macrophage cell line J774 can be primed by IFN-γ in vitro and is very responsive to subsequent LPS stimulation of iNOS upregulation as measured by a standard Greiss reagent ELISA assay procedure. The assay utilizes J774 cells seeded at 1×10^6/mL with 30 mL/flask and with IFN-γ added at 100 units/mL for 16-24 hrs. Cells are then harvested and washed and resuspended at 2×10^5/well in a 96-well plate and allowed to adhere. Glycolipid compounds are serially diluted into the wells for a test group and the resulting cultures are incubated for another 36-40 hrs before culture supernatants are collected from Greiss reagent analysis of nitrite release (Green et al. (1982) Anal. Biochem. 126: 131-138). Nitrite content closely parallels iNOS function.
# Potency was determined as the concentration (ng/mL) of glycolipid in culture capable of inducing one-half maximal induction of nitrite (ED50). The lower the ED50 number, the greater the potency for iNOS induction. The ED50 was cacluated according to methods set out in Johnson et al., (1999) J Med Chem. 42: 4640-4649.
# [5] = Rabbit pyrogen test; type: in vivo; details: i.v. 10 μg/Kg dose
# Text: In an effort to obtain an immunostimulant that has low pyrogenicity, synthetic molecules have been prepared which share structural similarities with the MPL® immunostimulant (see U.S. patent application Ser. No. 09/810,915, Filed on Mar. 16, 2001, and the present invention). These novel molecules which are collectively called aminoalkyl glucosaminide phosphates (AGPs), consist of an acylated […] moiety linked to an acylated aminoalkyl group (Johnson et al. (1999) Bioorg. Med. Chem. Lett. 9: 2273-2278; PCT/WO98/50399 and references therein). […] The substitution of different chemical moieties within the aminoalkyl structures was designed into the AGPs in anticipation of optimizing stability and solubility properties. Thus the AGPs can be broadly separated into several families based on the structure of their aminoalkyl groups. […] Here we report on studies of the adjuvant properties of a class of AGPs which induce minimal activity in both the rabbit pyrogen test and the ex vivo cytokine assay.
# [6] = system: HBsAg (Hepatitis B Surface Antigen); assay: Adjuvant activity towards HBsAg, serum titers by ELISA (Example 2); type: in vivo, BALB/c mice
# Experimental: Vaccines were prepared by mixing the adjuvant-containing TEoA (triethanolamine) formulations with recombinant HBsAg. Titers to HBsAg were determined by ELISA from pooled sera (5 mice/group) collected 21 days post-secondary vaccination (Table 1). The nonimmune controls were not vaccinated.
# [7] = anti-HBsAg, 2.0 μg HBsAg + 25 μg adjuvant s.c. day 0 and 21, pooled sera 21 days post secondary
# [8] = anti-HBsAg, 2 μg HBsAg + 20 μg adjuvant s.c. day 0 and 21, pooled sera 21 days post-secondary
substance,measurement,setting,value
N—[(R)-3-Tetradecanoyloxytetradecanoyl]-(S)-2-pyrrolidinomethyl 2-Deoxy-4-O-phosphono-2-[(R)-3-tetradecanoyloxytetradecanoylamino]-3-O—[(R)-3-tetradecanoyloxytetradecanoyl]-β-D-glucopyranoside Triethylammonium Salt [RC-553],HBsAg titers versus control group which received antigen in PBS,[1]; Example 4,increased titers compared to the control group
same,Serum Titers IgG1,[1]; [7],"32,000"
same,Serum Titers IgG2a,[1]; [7],"2,048,000"
same,Levels of TNF-α produced,[2],did not produce levels of TNF-α that could be detected
same,Levels of IL-1β produced,"[3]; 1, 5, and 10 μg/ml, 4 hr at 37° C.",did not produce detectable levels of IL-1β
same,"Relative induction of cytokines (IL-1β), MPL® immunostimulant assigned a value of 1",[3]; relative to MPL® immunostimulant = 1,≤ 0.05
same,Maximal iNOS activity / iNOS induction,[4],essentially inactive
same,Pyrogenicity (total rise in ° C. of 3 rabbits),[5]; Table 2,0.3 °C
same,Pyrogenicity (total rise in ° C. of 3 rabbits),[5]; Table 3,0.3 °C
same,Pyrogenicity (total rise in ° C. of 3 rabbits),[5]; Table 4,0.3 °C
same,Pyrogenicity (total rise in ° C. of 3 rabbits),"[5]; solubilized in 10% EtOH/WFI, diluted with 5% dextrose in water, Table 1",0.3 °C
same,anti-HBsAg responses (serum titers) versus antigen alone,[6]; Example 2,significantly higher than control sera receiving antigen alone
same,Serum Titers IgG,[6]; [8],"409,600"
same,Serum Titers IgG1,[6]; [8],"204,800"
same,Serum Titers IgG2a,[6]; [8],"409,600"
same,Serum Titers IgG2b,[6]; [8],"51,200"
